From PubChem BioAssay (NCI)
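At the GI50, growth is halved. The concentration for full growth arrest is given as TGI.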

Tests used:
Assay in all cases: inhibition of tumour cell growth, NCI panel, 384-well format
COLO 205 colon = system: COLO 205 colon
HS 578T breast = system: HS 578T breast
MDA-MB-231 breast = system: MDA-MB-231 breast
SF-295 CNS = system: SF-295 CNS
MCF7 breast = system: MCF7 breast
NCI-H226 lung = system: NCI-H226 lung
NCI-H460 NSCLC = system: NCI-H460 NSCLC
HOP-92 NSCLC = system: HOP-92 NSCLC
SK-MEL-5 melanoma = system: SK-MEL-5 melanoma
A549 NSCLC = system: A549 NSCLC
MDA-MB-468 breast = system: MDA-MB-468 breast
SN12C renal = system: SN12C renal
NCI/ADR-RES ovarian = system: NCI/ADR-RES ovarian
SK-OV-3 ovarian = system: SK-OV-3 ovarian
IGROV1 ovarian = system: IGROV1 ovarian
MALME-3M melanoma = system: MALME-3M melanoma
HCT-116 colon = system: HCT-116 colon
MOLT-4 leukemia = system: MOLT-4 leukemia
EKVX NSCLC = system: EKVX NSCLC
NCI-H322M lung = system: NCI-H322M lung
HCT-15 colon = system: HCT-15 colon
A498 renal = system: A498 renal
ACHN renal = system: ACHN renal
HL-60(TB) leukemia = system: HL-60(TB) leukemia
RXF 393 renal = system: RXF 393 renal
M14 melanoma = system: M14 melanoma
LOX IMVI melanoma = system: LOX IMVI melanoma
HCC-2998 colon = system: HCC-2998 colon
MDA-MB-435 melanoma = system: MDA-MB-435 melanoma
OVCAR-3 ovarian = system: OVCAR-3 ovarian
KM12 colon = system: KM12 colon
CAKI-1 renal = system: CAKI-1 renal
OVCAR-4 ovarian = system: OVCAR-4 ovarian
HT29 colon = system: HT29 colon
OVCAR-5 ovarian = system: OVCAR-5 ovarian
RPMI-8226 leukemia = system: RPMI-8226 leukemia
786-0 renal = system: 786-0 renal
BT-549 breast = system: BT-549 breast
PC-3 prostate = system: PC-3 prostate
NCI-H522 lung = system: NCI-H522 lung
OVCAR-8 ovarian = system: OVCAR-8 ovarian
NCI-H23 lung = system: NCI-H23 lung
DU-145 prostate = system: DU-145 prostate
HOP-62 NSCLC = system: HOP-62 NSCLC

`Cc1cn(-c2cc(NC(=O)c3ccc(C)c(Nc4nccc(-c5cccnc5)n4)c3)cc(C(F)(F)F)c2)cn1` was tested, and the GI50 (COLO 205 colon) was 1.28 µM, the TGI (COLO 205 colon) was 2.98 µM and the GI50 (HS 578T breast) was 1.55 µM. The TGI (HS 578T breast) was 2.9 µM, the GI50 (MDA-MB-231 breast) was 1.3 µM and the TGI (MDA-MB-231 breast) was 3.65 µM. It also gave a GI50 (SF-295 CNS) of 1.74 µM, a TGI (SF-295 CNS) of 3.39 µM and a GI50 (MCF7 breast) of 1.88 µM. For the same compound, the TGI (MCF7 breast) was 3.67 µM, the GI50 (NCI-H226 lung) was 1.7 µM and the TGI (NCI-H226 lung) was 3.68 µM. The GI50 (NCI-H460 NSCLC) was 2.67 µM, the TGI (NCI-H460 NSCLC) was 9.42 µM and the GI50 (HOP-92 NSCLC) was 1.66 µM. For the same compound, the TGI (HOP-92 NSCLC) was 3.6 µM, the GI50 (SK-MEL-5 melanoma) was 1.28 µM and the TGI (SK-MEL-5 melanoma) was 2.6 µM. The GI50 (A549 NSCLC) was 1.72 µM, the TGI (A549 NSCLC) was 3.16 µM and the GI50 (MDA-MB-468 breast) was 1.77 µM. The TGI (MDA-MB-468 breast) was 3.31 µM, the GI50 (SN12C renal) was 3.61 µM and the TGI (SN12C renal) was greater than 100 µM. For the same compound, the GI50 (NCI/ADR-RES ovarian) was 1.58 µM, the TGI (NCI/ADR-RES ovarian) was 3.74 µM and the GI50 (SK-OV-3 ovarian) was 1.83 µM. For the same compound, the TGI (SK-OV-3 ovarian) was 3.3 µM, the GI50 (IGROV1 ovarian) was 1.87 µM and the TGI (IGROV1 ovarian) was 3.61 µM. It also gave a GI50 (MALME-3M melanoma) of 0.447 µM, a TGI (MALME-3M melanoma) of 1.62 µM and a GI50 (HCT-116 colon) of 1.65 µM. For the same compound, the TGI (HCT-116 colon) was 3.75 µM, the GI50 (MOLT-4 leukemia) was 1.89 µM and the TGI (MOLT-4 leukemia) was greater than 100 µM. It also gave a GI50 (EKVX NSCLC) of 1.88 µM, a TGI (EKVX NSCLC) of 3.78 µM and a GI50 (NCI-H322M lung) of 2.29 µM. For the same compound, the TGI (NCI-H322M lung) was 4.63 µM, the GI50 (HCT-15 colon) was 3.6 µM and the TGI (HCT-15 colon) was 14.2 µM. The GI50 (A498 renal) was 1.98 µM, the TGI (A498 renal) was 3.94 µM and the GI50 (ACHN renal) was 1.64 µM. For the same compound, the TGI (ACHN renal) was 3.47 µM, the GI50 (HL-60(TB) leukemia) was 1.46 µM and the TGI (HL-60(TB) leukemia) was 7.92 µM. It also gave a GI50 (RXF 393 renal) of 1.47 µM, a TGI (RXF 393 renal) of 2.84 µM and a GI50 (M14 melanoma) of 1.19 µM. For the same compound, the TGI (M14 melanoma) was 2.53 µM, the GI50 (LOX IMVI melanoma) was 2.2 µM and the TGI (LOX IMVI melanoma) was 9.93 µM. The GI50 (HCC-2998 colon) was 2.24 µM, the TGI (HCC-2998 colon) was 5.36 µM and the GI50 (MDA-MB-435 melanoma) was 1.72 µM. For the same compound, the TGI (MDA-MB-435 melanoma) was 3.49 µM, the GI50 (OVCAR-3 ovarian) was 1.73 µM and the TGI (OVCAR-3 ovarian) was 3.36 µM. The GI50 (KM12 colon) was 2.5 µM, the TGI (KM12 colon) was 6.87 µM and the GI50 (CAKI-1 renal) was 3.04 µM. For the same compound, the TGI (CAKI-1 renal) was 10.8 µM, the GI50 (OVCAR-4 ovarian) was 3.16 µM and the TGI (OVCAR-4 ovarian) was 7.25 µM. It also gave a GI50 (HT29 colon) of 1.66 µM, a TGI (HT29 colon) of 3.78 µM and a GI50 (OVCAR-5 ovarian) of 1.91 µM. For the same compound, the TGI (OVCAR-5 ovarian) was 5.09 µM, the GI50 (RPMI-8226 leukemia) was 1.46 µM and the TGI (RPMI-8226 leukemia) was 5.45 µM. It also gave a GI50 (786-0 renal) of 1.64 µM, a TGI (786-0 renal) of 3.03 µM and a GI50 (BT-549 breast) of 1.99 µM. For the same compound, the TGI (BT-549 breast) was 3.43 µM, the GI50 (PC-3 prostate) was 1.71 µM and the TGI (PC-3 prostate) was 3.13 µM. It also gave a GI50 (NCI-H522 lung) of 1.82 µM, a TGI (NCI-H522 lung) of 4.48 µM and a GI50 (OVCAR-8 ovarian) of 1.59 µM. It also gave a TGI (OVCAR-8 ovarian) of 3.32 µM, a GI50 (NCI-H23 lung) of 2.24 µM and a TGI (NCI-H23 lung) of 7.48 µM. The GI50 (DU-145 prostate) was 2.8 µM, the TGI (DU-145 prostate) was 7.6 µM and the GI50 (HOP-62 NSCLC) was 2.21 µM. For the same compound, the TGI (HOP-62 NSCLC) was 5.73 µM.
